Experimental data published in US6653478B2, “Substituted benzimidazol-2-ones as vasopressin receptor antagonists and neuropeptide Y modulators” (Ortho-McNeil Pharmaceutical, Inc., priority 2000, dated 2003).
Counter-ions that a name gives are not always drawn.

Tests used:
human V2 receptor [1] = biological target: T1, human V2 receptor (Homo sapiens, UniProt P30518); test: V2 binding assay (3H-AVP displacement, HEK-293 membranes); design: expressed in transfected cells; host or cells: HEK-293 (membranes); conditions: for inhibition at 1 µM: read-out: V2@1.0, % Inh
Procedure, shortened: (§1)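 Tracer 3H-AVP, 10,000 cpm/well; buffer 50 mM Tris/5 mM MgCl2/0.1% BSA pH 7.5 + Pefabloc, aprotinin, leupeptin, pepstatin A, bacitracin; NSB 1.25 μM AVP; 1 h RT; GF/C filtration (0.3% PEI); scintillation count with quench correction.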

human V1a receptor [2] = biological target: T2, human V1a receptor (Homo sapiens, UniProt P37288); test: V1a functional assay, intracellular calcium mobilization in transfected HEK-293 cells (FLIPR); design: expressed in transfected cells; host or cells: HEK-293; conditions: challenge 1 nM AVP; read-out: Cell-Based Functional activity V1a IC50
T2 sequence (P37288 whole entry): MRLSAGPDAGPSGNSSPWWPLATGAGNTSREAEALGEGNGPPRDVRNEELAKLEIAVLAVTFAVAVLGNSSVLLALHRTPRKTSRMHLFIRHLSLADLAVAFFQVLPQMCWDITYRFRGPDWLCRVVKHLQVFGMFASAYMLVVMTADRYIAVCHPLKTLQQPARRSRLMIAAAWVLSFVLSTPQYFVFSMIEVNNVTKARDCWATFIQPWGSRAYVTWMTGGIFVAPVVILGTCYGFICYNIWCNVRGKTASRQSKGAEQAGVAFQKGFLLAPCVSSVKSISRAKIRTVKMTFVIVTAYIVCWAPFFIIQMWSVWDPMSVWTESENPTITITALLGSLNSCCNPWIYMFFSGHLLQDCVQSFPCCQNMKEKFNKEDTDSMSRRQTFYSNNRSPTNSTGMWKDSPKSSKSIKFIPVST
Experimental: (§2) V1a, V1b or V2 Functional Assay
(§3) HEK-293 cells were grown in DMEM media supplemented with 10% FBS and glutamine (Gibco BRL, Grand Island, N.Y.). Once transfected the cells were passed biweekly by trypsinization and seeded into 96 well plates at 33,000 cells per well. HEK-293 were transfected with human V1a, V1b or V2 DNA using DMRIE-C reagent from Life Technologies, Inc., Grand Island, N.Y. Cells were tested for their responsiveness to vasopressin 48 hours after transfection. Stable lines were generated by selecting cells grown in culture media containing geneticin (500 μg/ml, Life Technologies).
(§4) Intracellular calcium mobilization was measured in HEK-293 cells transfected to express either human V1a, oxytocin or V1b receptors. Cells were plated into black 96-well Packard Clear-View plates 4 to 7 days prior to use. The cells were loaded with fluo-3 AM (Molecular Probes, Inc., Eugene, Oreg.) in buffer (25 mM Hepes, 125 mM NaCl, 1 gm/l glucose, 0.1% BSA, 5 mM KCl, 0.5 mM CaCl2, 0.5 mM MgCl2, pH 7.45) containing Pluronic (Molecular Probes) Cells were incubated with 5 μM fluo-3 AM for 1 hour shielded from light at room temperature. Intracellular fluorescence was measured using FLIPR (fluorometric imaging plate reader; Molecular Devices, Inc., Sunnyvale, Calif.). The FLIPR protocol called for images to be collected at one second intervals with 50 μl of the test compound added after the initial 10 images. An additional 70 images were then taken to detect any compound agonistic activity. FLIPR then added 50 μl of agonist peptide and collected a final 40 images for quantitating compound antagonistic activity. V1a- and V1b-expressing HEK cells were challenged with 1 nM and 0.5 nM AVP, respectively. Oxytocin-expressing HEK cells were challenged with 0.5 nM oxytocin (Peninsula Labs).
(§5) The data from the cAMP accumulation and the calcium mobilization assays are expressed as IC50 values as determined from dose response curves.

human V1b receptor = biological target: T3, human V1b receptor (Homo sapiens, UniProt P47901); test: V1b functional assay, intracellular calcium mobilization in transfected HEK-293 cells (FLIPR); assay type: cell-based; design: expressed in transfected cells; host or cells: HEK-293; conditions: for IC50: challenge 0.5 nM AVP, read-out: Cell-Based Functional activity V1b IC50
T3 sequence (P47901 1-424): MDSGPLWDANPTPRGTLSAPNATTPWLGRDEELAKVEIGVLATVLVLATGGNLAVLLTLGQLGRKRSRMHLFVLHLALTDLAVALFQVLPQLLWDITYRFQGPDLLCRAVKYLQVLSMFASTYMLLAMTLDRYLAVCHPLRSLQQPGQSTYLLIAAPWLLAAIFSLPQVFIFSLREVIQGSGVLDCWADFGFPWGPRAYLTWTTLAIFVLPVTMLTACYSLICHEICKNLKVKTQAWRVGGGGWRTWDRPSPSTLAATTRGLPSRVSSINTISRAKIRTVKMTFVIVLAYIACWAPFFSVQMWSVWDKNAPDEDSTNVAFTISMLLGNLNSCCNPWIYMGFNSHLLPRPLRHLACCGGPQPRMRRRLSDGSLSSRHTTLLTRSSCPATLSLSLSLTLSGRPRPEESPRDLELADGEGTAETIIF
Experimental: as §2, §3, §4, §5

human V1a receptor [3] = biological target: T2, human V1a receptor; test: V1a binding assay (3H-AVP displacement, HEK-293 membranes); design: expressed in transfected cells; host or cells: HEK-293 (membranes)
Procedure, shortened: as §1

human V2 receptor [4] = biological target: T1, human V2 receptor; test: V2 functional assay, cAMP accumulation in transfected HEK-293 cells; assay type: cell-based; design: expressed in transfected cells; host or cells: HEK-293; conditions: for IC50: AVP 1 nM, read-out: Cell-Based Functional activity V2 IC50
Experimental: as §2, §3
The accumulation of cAMP was measured in transfected HEK-293 expressing the human V2 receptor. The cells were cultured 4-7 days in 96-well plates. On the day of assay, cells were washed twice in assay media (DMEM/F12 containing 0.1% BSA). The cells were treated with the test compound for 5 minutes and then given AVP (1 nM) in assay media containing 1 mM isobutylmethylxanthine. After 5 minutes, 0.5 N HCl was added to disrupt the cells and solubilize cAMP. The cAMP content of 20 μl of the cell lysate in each well was measured using cAMP Flashplates (NEN Life Sciences). Data are expressed as pmol cAMP/well. While the assay is optimized to detect and quantitate antagonistic activity, agonistic activity would also be apparent at the higher concentrations of test compounds.
as §5

inhibition at 1 µM (human V2 receptor [1]; 1.0 μM compound)	IC50 (human V1a receptor [2])	IC50 (human V1b receptor)	IC50 (human V1a receptor [3])	inhibition at 30 µM (human V2 receptor [4]; HEK293, 30 μM compound, read-out: Cell-Based Functional activity V2 % Inh. @ 30)	V2@1.0, % Inh (human V2 receptor [1]; 1.0 μM compound)	Cell-Based Functional activity V2 % Inh. @ 30 (human V2 receptor [4]; 30 μM compound)	inhibition at 30 µM (human V1b receptor; HEK293, 30 μM compound, read-out: Cell-Based Functional activity V1b % Inh. @ 30)	inhibition at 10 µM (human V2 receptor [4]; HEK293, 10 μM compound, read-out: Cell-Based Functional activity V2 % Inh. @ 10)	IC50 (human V2 receptor [1])	IC50 (human V2 receptor [4])	Compound
18%	240 nM	6.61 µM	32 nM	0%							N=C(N)NCCCn1c(=O)n(C2CCN(C(=S)NC(c3ccccc3)c3ccccc3)CC2)c2ccccc21 [Compound 59, 1-[(N1-Piperidinocarbothioyldiphenylmethylamino)-4-yl]-3-(3-guanidinopropyl)-1,3-dihydrobenzimidazol-2-one]
	482 nM	16.8 µM	260 nM		0%	0% @ 30					1-[(N1-Piperidinocarbothioyl-(1-L-carboxymethyl-2-phenylamino)-4-yl]-3-(3-aminopropyl)-1,3-dihydrobenzimidazol-2-one Hydrochloride [Compound 57]
0%	810 nM		38 nM				0%	0%			CCN(CC)CCn1c(=O)n(C2CCN(C(=S)NC(Cc3ccccc3)C(=O)OC)CC2)c2ccccc21 [Compound 42, 1-(N1-Piperidinocarbothioyl-(2-phenyl-1-L-carboxymethyl)amino-4-yl)-3-(2-diethyaminoethyl)-1,3-dihydrobenzimidazol-2-one]
	139 nM	0.318 µM	27 nM						1250 nM	22.8 µM	NCCCn1c(=O)n(C2CCN(C(=S)NC(c3ccccc3)c3ccccc3)CC2)c2ccccc21 [Compound 55, 1-[(N1-Piperidinocarbothioyldiphenylmethylamino)-4-yl]-3-(3-aminopropyl)-1,3-dihydrobenzimidazol-2-one Monohydrochloride]
44%	458 nM	9.99 µM	75 nM							0.623 µM	CCN(CC)CCn1c(=O)n(C2CCN(C(=S)NC(c3ccccc3)c3ccccc3)CC2)c2ccccc21 [Compound 35, 1-(N1-Piperidinocarbothioyldiphenylmethylamino-4-yl)-3-(2-diethyaminoethyl)-1,3-dihydrobenzimidazol-2-one]
